The values that follow come from US20110230447A1, “OSTEOGENESIS PROMOTER COMPRISING [4-(METHYLTHIO)PHENYLTHIO]METHANEBISPHOSPHONIC ACID OR PHARMACEUTICALLY ACCEPTABLE SALT THEREOF AS ACTIVE INGREDIENT” (Tohoku University, priority 2008, published 2011).

In assay [1] the test system is maxillary alveolar bone of a rabbit. As to the kind of experiment: Local subperiosteal injection at the maxillary alveolar bone of rabbits, pQCT and μCT analysis. It counts as in vivo. As to the method: FIG. 2 is a proliferation of the bone induced on the maxillary alveolar bone of a rabbit resulting from local administration of MPMBP (administration of a 1 mM or 10 mM solution every 4 days for 6 times). (pQCT: peripheral Quantitative Computerized Tomography image). A horizontal section in the vicinity of the cervical site of the maxillary molar teeth. Exp: A test side (side to which MPMBP was administered), cont: a control side (side to which 0.9% NaCl was administered). Arrows represent injected sites.
FIG. 3 is a proliferation of the bone induced on the maxillary alveolar bone of a rabbit resulting from local administration of MPMBP (administration of a 1 mM or 10 mM solution every 4 days for 6 times) (μCT image: microfocus Computerized Tomography image). A forehead cut of the midline region of the right and left maxillary first molars. exp: A test side (side to which MPMBP was administered). cont: A control side (side to which 0.9% NaCl was administered).
A total of 9 Japanese male rabbits with the average weight of 2.2 kg were used and they were divided into 3 groups of 3 rabbits each. Under the periosteum of the palatal alveolar bone between the teeth of the maxillary first molar and the maxillary second molar on the left side (experiment side) of the domestic rabbits in each group, 50 μl of a 0.1, 1.0, or 10 mM MPMBP solution was injected every 4 days for 6 times (all performed under anesthesia using Nembutal). To the same sites on the opposite side (the right side), 50 μl of a physiological saline solution (0.9% NaCl solution) was injected in the same manner, and was set to be a control. On the 4th day after the final injection, the animals were euthanized with excessive administration of Nembutal, and the maxillary bone was removed and fixed with a 10% neutral formalin solution (pH 7.4). With the alveolar bone in the vicinity of drug administration sites and the palatine bone as the region of interest, 3-dimensional analysis was performed using a pQCT (peripheral Quantitative Computerized Tomography; FIG. 2) and a μCT (microfocus Computerized Tomography; FIG. 3). […] This type of the osteogenesis promoting effect of MPMBP in the living body has not been reported with the existing bisphosphonate compound.

Assay [2] has as its system MC3T3-E1 cells. As to the kind of experiment: Expression of osteogenesis-related genes in MC3T3-E1 cells by real-time RT-PCR. It counts as cell-based, mouse. The text has this:
As an experiment to clarify the mechanism of the osteogenesis promoting action of MPMBP, using the osteoblast-based cell line MC3T3-E1 cells, the effect on expression of osteogenesis-related genes was studied using the real-time RT-PCR method. Moreover, the effect was compared with the action of zoledronate.
In the experiment, the osteoblast-based cell line MC3T3-E1 cells that reached the confluent after cultured with α-MEM (10% bovine serum supplementation) were used. For 3 days, they were cultured (used a dish with the diameter of 60 mm) under the presence of MPMBP (1, 10, or 100 μM) or zoledronate (0.1, 0.5 or 2.00 μM). After completion of culturing, cells were scraped and using Trizol, RNA was extracted. From 5 μg of RNA, cDNA was synthesized, specific primers were set with respect to alkaline phosphatase, the type I-α collagen, osteocalcin, and bone sialoprotein genes, PCR amplification was performed in the thermal cycler, and the amount of expression of the above genes was measured.
A general note: Real-time PCR tracks product formation cycle by cycle.

For assay [3], the system named is MC3T3-E1 cells. As to the kind of experiment: Alkaline phosphatase (ALP) activity in osteoblast-like MC3T3-E1 cells. The format is cell-based, mouse. As to the method:
FIG. 4 is an effect of MPMBP (1, 10, and 100 μM) on the osteoblast lineage cell lines MC3T3-E1 cells.
FIG. 5 is an effect of bisphosphonate ([…] bisphosphonate, namely pamidronate, incadronate, and zoledronate. Respectively, 0.1, 1, and 10 μM) on the osteoblast-like cell line MC3T3-E1 cells.
Using the mouse skull-derived osteoblast-like cell line MC3T3-E1 cells (RIKEN Bio Resource Center, CELL BANK: RCB 1126), with respect to the alkaline phosphatase (ALP) activity, known as one index of osteogenesis, and also known as the index of differentiation of osteoblast precursor cells to osteoblasts, what kind of effects MPMBP has was studied. After MC3T3-E1 cells were cultured in a α-MEM (10% bovine serum supplementation) and after the confluent was reached, under the presence or absence of MPMBP (1, 10, and 100 μM), for 6, 10, or 20 days, they were cultured in the culture plate of 48 wells. After completion of culturing, a cell homogenate was prepared, and using the method by Lowry et al (J Biochem 1954; 207: 19-37), the ALP activity (per well) was measured.

Assay [4] relates to calvariae (bone organ culture system of a mouse). As to the kind of experiment: Bone organ culture system of mouse calvariae, staining and confocal laser scanning microscopy. The format is cell-based. To be noted: for bone resorption resulting from LPS, size of the resorption cavity: Nomarski images; for production of collagen (type I collagen fibers): MPMBP 100 μM, alendronate 2.0 μM, no heparin, vs control bone (FIG. 9); for production of the type I collagen / bone matrix: zoledronate 2.5 μM compared with MPMBP, presence or absence of LPS (FIG. 8). As to the method:
Using the bone organ culture system, what kind of effects MPMBP has on production of the bone matrix was studied. From 3-6 day old mice, calvariae were collected aseptically. These were cultured using the Stern and Krieger method (Calcif Tissue hit 1983; 35: 172-17) with DMEM (10% bovine serum supplementation, no supplementation of heparin, supplementation or no supplementation of LPS 10 μg/ml) for 48 hours. After completion of culturing, with the method described by Suzuki, Takeyama et al (J Histochem Cytochem 2005; 53: 1525-1537), a double staining of the type I collagen and alkaline phosphatase (FIG. 6 and FIG. 8), a double staining of the type I collagen and alizarin red (FIG. 7), and an immunohistochemical staining using the type I collagen (FIG. 9) were performed, and using a confocal laser scanning microscope, they were observed.
The upper panels are Nomarski differential interference contrast images of the bone surface. The middle panels are images of the bone surface after the double staining of the type I collagen and alkaline phosphatase was performed, and the lower panels are images of the bone section after the double staining of the type I collagen and alkaline phosphatase was performed, respectively. Using rhodamine for the type I collagen, red color could be observed, and using a substrate (ELF-97) that fluoresces when dephosphorylated for alkaline phosphatase (stain osteoblasts), the enzyme activity could be observed in green color.
The upper panels are Nomarski differential interference contrast images of the bone surface. […] The lower panels are images of the bone section after the double staining of the type I collagen and alizarin red was performed, and the collagen fibers could be observed in green color resulting from Alexa Fluor-488 and the bone mineral could be observed in red color resulting from alizarin red.
After the immunological double staining of the type I collagen and alkaline phosphatase was performed, as was the case with FIG. 6, using Alexa Fluor 594 for the type I collagen, it was stained in red color, and using the substrate (ELF-97) that fluoresces when dephosphorylated for alkaline phosphatase (osteoblasts), the enzyme activity was stained in green color. The upper panels are observation images of the bone surface and the lower panels are images of the bone section.

Setting [5] is: 50 μl of 1.0 mM or 10 mM solution under the periosteum every 4 days for 6 times, vs 0.9% NaCl on the opposite side.
[6] abbreviates: 1, 10 and 100 μM, cultured 6, 10 or 20 days (FIG. 4).
The mark [7] stands for this setting: 0.1, 1 and 10 μM, culture up to 3 weeks (FIG. 5).

“Also recorded” adds a separate entry of the source.

With `CSc1ccc(SC(P(=O)([O-])[O-])P(=O)(O)O)cc1.[Na+].[Na+]` [MPMBP, [4-(methylthio)phenylthio]-methanebisphosphonic acid.disodium salt], in assay [1] (0.1 mM, 50 μl every 4 days for 6 times), the “bone changes (osteogenesis promoting effect) in the 0.1 mM group” value was “the effect was not clear”. Moreover, in assay [1] (10 mM vs 1.0 mM, 50 μl every 4 days for 6 times), the “bone changes, 10 mM group compared to 1.0 mM group” value was “stronger for the 10 mM administration group”. Besides, in assay [1] (setting [5]), the “bone addition to the palatal side of the alveolar bone (proliferation of the alveolar bone), pQCT” value is recorded as “a proliferation of the alveolar bone is observed; also recorded: bone addition to the palatal side of the alveolar bones” and the “thickness of the palatine bone from the alveolar site to the middle of the palate, μCT” value is reported as “the thickness of the palatine bone is increasing; also recorded: the thickness of the palatine bone increased”. Moreover, the “expression of alkaline phosphatase, type I-α collagen, osteocalcin and bone sialoprotein genes” value with MC3T3-E1 cells [2] (MPMBP 100 μM (1, 10, 100 μM tested), 3 days (72 hours) (FIG. 10)) is reported as “promoted gene expression of all of the above; also recorded: increased significantly in all genes”. For the same compound, the “ALP activity (per well)” value in the assay on MC3T3-E1 cells [3] (setting [6]) is “increase an alkaline phosphatase activity in a dose-dependent manner and with time; also recorded: increased the ALP activity in a dose-dependent manner and with time”. Besides, the “bone resorption resulting from LPS, size of the resorption cavity” value in assay [4] (48 hours, LPS, vs control bone (FIG. 7)) is “the bone resorption was inhibited resulting from LPS and the size of the resorption cavity that was formed from LPS was significantly smaller; also recorded: the bone resorption was inhibited resulting from LPS and the size of the resorption cavity that was formed by LPS was significantly small”. Besides, in assay [4] (48 hours, presence or absence of LPS, vs control bone (FIG. 7)), the “production of the bone matrix (type I collagen, Alexa Fluor-488)” value was “production of the bone matrix (sites in green color) was promoted significantly; also recorded: production of the bone matrix (sites in green color) significantly increased”. The “thickness of the bone mineral (alizarin red)” value in assay [4] (48 hours, vs control bone (FIG. 7)) is “the thickness of the bone mineral (sites in red color) was thick”. For the same compound, the “production of the bone matrix (type I collagen)” value in assay [4] (MPMBP 25 μM, 48 hours, DMEM, presence or absence of LPS 10 μg/ml, vs control bone (FIG. 6)) was “production of the bone matrix (sites in red color) was promoted significantly; also recorded: production of the bone matrix (type I collagen: sites in red) significantly increased”. In assay [4] (MPMBP 25 μM, 48 hours, LPS 10 μg/ml, vs control bone (FIG. 6)), the “bone resorption resulting from LPS, size of the resorption cavity” value is “the bone resorption was inhibited resulting from LPS and the size of a resorption cavity that was formed from LPS was significantly smaller; also recorded: the bone resorption was inhibited resulting from LPS and the size of the resorption cavity that was formed by LPS was significantly small”. Moreover, in assay [4] (48 hours), the “production of collagen (type I collagen fibers)” value was “a large amount of thick collagen fibers was produced in a fascicular shape and the bone surface was densely covered”; the “production of the type I collagen / bone matrix” value is listed as “significantly promoted production of the bone matrix; also recorded: significantly increased production of the bone matrix”. Further, the “concentration indicating the same level of the inhibitory action of the bone resorption in the bone organ culture system” value in assay [4] (bone organ culture system) turned out to be 100 µM.
Regarding `NCCCC(O)(P(=O)(O)O)P(=O)(O)O` [alendronate, reference compound], in assay [4] (48 hours), the “production of collagen (type I collagen fibers)” value is reported as “production of the collagen increased were observed; however, the degree was small, compared to MPMBP”.
Consider `O=P(O)(O)C(Cl)(Cl)P(=O)(O)O` [clodronate], for which the “ALP activity (per well)” value in the assay with MC3T3-E1 cells [3] (setting [6]) was “increase an alkaline phosphatase activity in a dose-dependent manner and with time; also recorded: increased the ALP activity”.
For `O=P(O)(O)C(NC1CCCCCC1)P(=O)(O)O` [incadronate], the “ALP activity (per well)” value in the assay on MC3T3-E1 cells [3] (setting [7]) is given as “the alkaline phosphatase activity is inhibited or the alkaline phosphatase activity is not affected; also recorded: the ALP activity was significantly reduced in high concentration”.
On the same count and under the same terms, the value for `NCCC(O)(P(=O)(O)O)P(=O)(O)O` [pamidronate] was “the alkaline phosphatase activity is inhibited or the alkaline phosphatase activity is not affected; also recorded: no significant change was observed”.
For `O=P(O)(O)C(O)(Cn1ccnc1)P(=O)(O)O` [zoledronate, reference compound], the “expression of alkaline phosphatase, type I-α collagen, osteocalcin and bone sialoprotein genes” value is on record as “no significant change was caused to the amount of expression of these genes” in the assay on MC3T3-E1 cells [2] (zoledronate 0.1, 0.5 or 2.00 μM, 3 days (FIG. 11)) and “did not significantly affect gene expression of all of the above” with MC3T3-E1 cells [2] (zoledronate 0.1, 0.5 or 2.00 μM, 3 days (FIG. 11), listed as Zoledronate). In addition, the “ALP activity (per well)” value in the assay on MC3T3-E1 cells [3] (setting [7]) is “the alkaline phosphatase activity is inhibited or the alkaline phosphatase activity is not affected; also recorded: the ALP activity was significantly reduced in high concentration”. The “production of the type I collagen / bone matrix” value in assay [4] (48 hours) is on record as “inhibited production of the type I collagen”.
